Assay results as given in ChEMBL document CHEMBL5375953, “Discovery of Biaryl Amide Derivatives as Potent, Selective, and Orally Bioavailable RORγt Agonists for Cancer Immunotherapy” (J Med Chem, 2023).

Experiments:
[1] = Cmax in rat at 5 mg/kg,po administration measured after 24 hrs by LC-MS/MS analysis; format: ADME, organism-based; parameters: time 24 hrs, dose 5 mg/kg, route po; conditions: in vivo
[2] = Metabolic Stability in rat liver microsome assessed as intrinsic clearance at […] measured upto 60 mins by HPLC-MS/MS analysis; format: ADME; conditions: microsomes, 1 h
[3] = Metabolic Stability in dog liver microsome assessed as intrinsic clearance at […] measured upto 60 mins by HPLC-MS/MS analysis; format: ADME, Canis lupus familiaris; conditions: microsomes, 1 h
[4] = Metabolic Stability in mouse liver microsome assessed as half life at […] measured upto 60 mins by HPLC-MS/MS analysis; format: ADME; conditions: liver microsomes
[5] = Toxicity against C57BL/6 mouse xenografted with mouse Lung adenocarcinoma cell line assessed as change in body weight at 50 mg/kg,ip administrated on day 7 for 12 days; format: organism-based; conditions: in vivo, 288 h, time 12 day
[6] = Metabolic Stability in mouse liver microsome assessed as microsomal intrinsic clearance at […] measured upto 60 mins by HPLC-MS/MS analysis; format: ADME; conditions: liver microsomes, read-out: CLH
[7] = Metabolic Stability in rat liver microsome assessed as microsomal intrinsic clearance at […] measured upto 60 mins by HPLC-MS/MS analysis; format: ADME; conditions: liver microsomes, read-out: CLH
[8] = Metabolic Stability in mouse liver microsome assessed as intrinsic clearance at […] measured upto 60 mins by HPLC-MS/MS analysis; format: ADME; conditions: microsomes, 1 h
[9] = Oral bioavailability in CD-1 mouse at 5 mg/kg administration measured after 24 hrs by LC-MS/MS analysis; format: ADME, organism-based; conditions: in vivo
[10] = AUC(infinity) in rat at 5 mg/kg,po administration measured after 24 hrs by LC-MS/MS analysis; format: ADME, organism-based; parameters: time 24 hrs, dose 5 mg/kg, route po; conditions: in vivo
[11] = AUC(infinity) in dog at 2 mg/kg,po administration measured after 24 hrs by LC-MS/MS analysis; format: ADME, organism-based, Canis lupus familiaris; parameters: dose 2 mg/kg, time 24 hrs, route po; conditions: in vivo
[12] = Metabolic Stability in dog liver microsome assessed as half life at […] measured upto 60 mins by HPLC-MS/MS analysis; format: ADME, Canis lupus familiaris; conditions: liver microsomes
[13] = Volume of distribution at steady state in rat at 1 mg/kg,iv administration measured after 24 hrs by LC-MS/MS analysis; format: ADME, organism-based; conditions: in vivo, read-out: Vdss
[14] = Half life in rat at 1 mg/kg,iv administration measured after 24 hrs by LC-MS/MS analysis; format: ADME, organism-based; conditions: in vivo
[15] = Toxicity against C57BL/6 mouse xenografted with mouse Lung adenocarcinoma cell line assessed as change in body weight at 25 mg/kg,ip administrated on day 7 for 12 days; format: organism-based; conditions: in vivo, 288 h, time 12 day
[16] = Oral bioavailability in dog at 2 mg/kg administration measured after 24 hrs by LC-MS/MS analysis; format: ADME, organism-based, Canis lupus familiaris; conditions: in vivo
[17] = system: B16-F10; assay: Antitumor activity against mouse B16-F10 cells xenografted in C57BL/6 mouse assessed as tumor growth inhibition at 100 mg/kg,ip administrated on day 7 for 8 days relative to control; format: functional; conditions: B16-F10, 192 h, time 8 day, read-out: TGI
[18] = system: B16-F10; assay: Antitumor activity against mouse B16-F10 cells xenografted in C57BL/6 mouse assessed as tumor growth inhibition at 50 mg/kg,ip administrated on day 7 for 8 days relative to control; format: functional; conditions: B16-F10, 192 h, time 8 day, read-out: TGI
[19] = biological target: T1, Nuclear receptor ROR-alpha (Homo sapiens, UniProt P35398); assay: Agonist activity at human Gal4-fused RORalpha expressed in HEK293T cells assessed as luciferase activity incubated for 16 to 20 hrs by Luciferase reporter gene assay; format: cell-based
T1 sequence (P35398 whole entry): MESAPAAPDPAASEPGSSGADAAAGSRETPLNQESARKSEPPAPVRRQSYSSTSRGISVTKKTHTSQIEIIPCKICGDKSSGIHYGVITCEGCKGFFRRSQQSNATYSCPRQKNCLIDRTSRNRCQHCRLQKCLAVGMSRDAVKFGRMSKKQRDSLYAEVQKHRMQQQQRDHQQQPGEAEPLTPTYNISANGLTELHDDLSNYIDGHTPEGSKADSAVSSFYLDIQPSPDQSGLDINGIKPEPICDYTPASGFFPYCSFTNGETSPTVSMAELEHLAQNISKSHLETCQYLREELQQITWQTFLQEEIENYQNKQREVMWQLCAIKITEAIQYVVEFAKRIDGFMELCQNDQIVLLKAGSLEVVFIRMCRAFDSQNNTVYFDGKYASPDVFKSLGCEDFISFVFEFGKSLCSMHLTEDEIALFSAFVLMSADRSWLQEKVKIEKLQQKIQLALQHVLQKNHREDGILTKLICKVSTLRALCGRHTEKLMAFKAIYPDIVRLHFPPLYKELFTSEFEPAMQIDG

[20] = Metabolic Stability in dog liver microsome assessed as microsomal intrinsic clearance at […] measured upto 60 mins by HPLC-MS/MS analysis; format: ADME, Canis lupus familiaris; conditions: liver microsomes, read-out: CLH
[21] = Half life in dog at 2 mg/kg,po administration measured after 24 hrs by LC-MS/MS analysis; format: ADME, organism-based, Canis lupus familiaris; conditions: in vivo
[22] = Clearance in dog at 1 mg/kg,iv administration measured after 24 hrs by LC-MS/MS analysis; format: ADME, organism-based, Canis lupus familiaris; conditions: in vivo
[23] = Genotoxicity in Salmonella typhimurium TA100 by mini-Ames mutagenicity test; format: toxicity; conditions: salmonella enterica subsp. enterica serovar typhimurium
[24] = Metabolic Stability in human liver microsome assessed as intrinsic clearance at […] measured upto 60 mins by HPLC-MS/MS analysis; format: ADME; conditions: microsomes, 1 h
[25] = Metabolic Stability in cynomolgus monkey liver microsome assessed as microsomal intrinsic clearance at […] measured upto 60 mins by HPLC-MS/MS analysis; format: ADME, Macaca fascicularis; conditions: liver microsomes, read-out: CLH
[26] = Clearance in rat at 1 mg/kg,iv administration measured after 24 hrs by LC-MS/MS analysis; format: ADME, organism-based; conditions: in vivo
[27] = Metabolic Stability in rat liver microsome assessed as half life at […] measured upto 60 mins by HPLC-MS/MS analysis; format: ADME; conditions: liver microsomes
[28] = Toxicity against C57BL/6 mouse xenografted with mouse B16-F10 cells assessed as body weight loss at 25 to 100 mg/kg,ip administrated on day 7 for 8 days; format: organism-based; conditions: in vivo, 192 h, dose 25-100 mg/kg, time 8 day
[29] = Volume of distribution at steady state in CD-1 mouse at 1 mg/kg,iv administration measured after 24 hrs by LC-MS/MS analysis; format: ADME, organism-based; conditions: in vivo
[30] = Half life in rat at 5 mg/kg,po administration measured after 24 hrs by LC-MS/MS analysis; format: ADME, organism-based; conditions: in vivo
[31] = Toxicity against C57BL/6 mouse xenografted with mouse Lung adenocarcinoma cell line assessed as change in body weight at 100 mg/kg,po administrated on day 7 for 12 days; format: organism-based; conditions: in vivo, 288 h, time 12 day
[32] = Metabolic Stability in cynomolgus monkey liver microsome assessed as half life at […] measured upto 60 mins by HPLC-MS/MS analysis; format: ADME, Macaca fascicularis; conditions: liver microsomes
[33] = Metabolic Stability in human liver microsome assessed as half life at […] measured upto 60 mins by HPLC-MS/MS analysis; format: ADME; conditions: liver microsomes
[34] = Toxicity against C57BL/6 mouse xenografted with mouse B16-F10 cells assessed as animal death at 25 to 100 mg/kg,ip administrated on day 7 for 8 days; format: organism-based; conditions: in vivo, 192 h, dose 25-100 mg/kg, time 8 day
[35] = Volume of distribution at steady state in dog at 1 mg/kg,iv administration measured after 24 hrs by LC-MS/MS analysis; format: ADME, organism-based, Canis lupus familiaris; conditions: in vivo, read-out: Vdss
[36] = Genotoxicity in Salmonella typhimurium TA98 by mini-Ames mutagenicity test; format: toxicity; conditions: salmonella enterica subsp. enterica serovar typhimurium

In the case of CCS(=O)(=O)c1ccc(CC(=O)Nc2cc(Cl)c(-c3ccc(OC(C)C)c(C#N)c3)c(Cl)c2)cc1, the Cmax [1] is reported as 503 ng/mL, the CLH [2] is reported as < 17.3 µL/min/mg and the CLH [3] is reported as < 13.8 µL/min/mg. The half-life [4] was > 2.42 h, the Activity [5] was “Non-Toxic” and the microsomal CLint [6] was < 9.6 µL/min/mg. The microsomal CLint [7] was < 9.6 µL/min/mg, the CLH [8] was < 38 µL/min/mg and the bioavailability [9] was 90.3%. For the same molecule, the AUC(0-inf) [10] was 10600 ng·h/mL, the AUC(0-inf) [11] was 33000 ng·h/mL and the half-life [12] was > 2.42 h. The Vd [13] was 2.8 L/kg, the half-life [14] was 11.2 h and the Activity [15] was “Non-Toxic”. For the same molecule, the bioavailability [16] was 52.2%, the inhibition in vivo at 100 mg/kg [17] was 77.9% and the inhibition in vivo at 50 mg/kg [18] was 54.7%. For the same molecule, the EC50 [19] was > 10 µM, the microsomal CLint [20] was < 9.6 µL/min/mg and the half-life [21] was 59.1 h. The clearance [22] was 0.64 mL/min/kg, the Activity [23] was “Non-Toxic” and the CLH [24] was < 8.6 µL/min/mg. The microsomal CLint [25] was 44.6 µL/min/mg, the clearance [26] was 3.2 mL/min/kg and the half-life [27] was > 2.42 h. For the same molecule, the Activity [28] was “Non-Toxic”, the Vdss [29] was 2 L/kg and the half-life [30] was 11.4 h. For the same molecule, the Activity [31] was “Non-Toxic”, the half-life [32] was 0.518 h and the half-life [33] was > 2.42 h. For the same molecule, the Activity [34] was “Non-Toxic”, the Vd [35] was 2.5 L/kg and the Activity [36] was “Non-Toxic”.
